# Measured values published in patent US20260069584A1, “METHODS OF TREATING CHRONIC MYELOID LEUKEMIA USING THE TYROSINE KINASE INHIBITOR VODOBATINIB” (Sun Pharma Advanced Research Company Ltd., priority 2022, published 2026).
# Assays:
# [1] = Part B: treatment-emergent cardiovascular adverse events (CVAEs); type: in vivo, human
# From the text: For the purpose of the present invention, the adverse events were graded as per the National Cancer Institute's, Common Terminology Criteria for Adverse Events (NCI-CTCAE) Version 4.03 and Version 5.0 (https://evs.nci.nih.gov/ftp1/CTCAE/About.html). It is a descriptive terminology which can be utilized for Adverse Event (AE) reporting.
# AEs were graded as per NCI-CTCAE Version 5.0. In the present study, along with others most common AEs for which patients were monitored were thrombocytopenia, neutropenia and anemia, any AE reported by the patient after the completion of AE collection period and considered related to the study drug was reported.
# Two CVAEs considered related to the compound of Formula I: one Grade 2 hypertension and one fatal intracranial hemorrhage (ICH) with concomitant disease progression to BP CML.
# Table 22 below lists the medical history of patients and CVAEs that were reported in the patient during treatment.
# [2] = target: ABL1 kinase and its mutant forms; test: In-vitro ABL1 kinase inhibition; type: biochemical
# [3] = Prior Ponatinib (N = 22), Any grade
# [4] = Prior Ponatinib (N = 22), Grade 3/4
# [5] = ≤2 prior TKIs (N = 18), Any grade
# [6] = ≤2 prior TKIs (N = 18), Grade 3/4
# [7] = ≥3 prior TKIs (N = 35), Any grade
# [8] = ≥3 prior TKIs (N = 35), Grade 3/4
smiles,measurement,setting,value
"Cc1ccc(C(=O)NNC(=O)c2c(C)cccc2Cl)cc1C#Cc1cnc2ccccc2c1 [compound of Formula I, N′-(2-chloro-6-methylbenzoyl)-4-methyl-3-[2-(3-quinolyl)ethynyl]-benzohydrazide]",Treatment-emergent cardiovascular AE: Congestive heart failure (%),[1]; [3],(4.5%)
same,Treatment-emergent cardiovascular AE: Hot flush (%),[1]; [3],(4.5%)
same,Treatment-emergent cardiovascular AE: Hypertension (%),[1]; [3],(9.1%)
same,Treatment-emergent cardiovascular AE: Hypotension (%),[1]; [3],(4.5%)
same,Treatment-emergent cardiovascular AE: Intermittent claudication (%),[1]; [3],(4.5%)
same,Treatment-emergent cardiovascular AE: Syncope (%),[1]; [3],(4.5%)
same,Treatment-emergent cardiovascular AE: Transient ischaemic attack (%),[1]; [3],(4.5%)
same,Treatment-emergent cardiovascular AE: Troponin I increased (%),[1]; [3],(4.5%)
same,Treatment-emergent cardiovascular AEs: Serious Adverse Events (%),[1]; [3],(13.6%)
same,Treatment-emergent cardiovascular AE: Adverse Events Cluster - Cardiac and vascular events (%),[1]; [4],(13.6%)
same,Treatment-emergent cardiovascular AE: Congestive heart failure (%),[1]; [4],(4.5%)
same,Treatment-emergent cardiovascular AE: Hypertension (%),[1]; [4],(4.5%)
same,Treatment-emergent cardiovascular AE: Syncope (%),[1]; [4],(4.5%)
same,Treatment-emergent cardiovascular AEs: Serious Adverse Events (%),[1]; [4],(4.5%)
same,CVAEs related to the compound,[1]; grade 2 hypertension and fatal intracranial hemorrhage,2
same,major CVAEs,"[1]; highest dose of 204 mg, as long as 24 months",did not result in major CVAEs
same,permanent discontinuation due to CVAEs,"[1]; human, in vivo",1
same,dose modifications due to CVAEs,[1]; in vivo,No dose modifications
same,patients reporting CVAEs on study,[1]; of thirty patients with medical history of CVAEs,12 patients
same,grade 3 or 4 CVAEs,[1]; out of 53,5.6%
same,withdrawal criteria based on QTcF prolongation or safety laboratory tests,[1]; patients,No subject reached the subject withdrawal criteria
same,Treatment-emergent cardiovascular AE: Adverse Events Cluster - Cardiac and vascular events (%),[1]; [5],(5.5%)
same,Treatment-emergent cardiovascular AE: Congestive heart failure (%),[1]; [5],(5.5%)
same,Treatment-emergent cardiovascular AE: Adverse Events Cluster - Cardiac and vascular events (%),[1]; [6],(5.5%)
same,Treatment-emergent cardiovascular AE: Congestive heart failure (%),[1]; [6],(5.5%)
same,Treatment-emergent cardiovascular AE: Adverse Events Cluster - Cardiac and vascular events (%),[1]; [7],(37.1%)
same,Treatment-emergent cardiovascular AE: Angina Pectoris (%),[1]; [7],(5.7%)
same,Treatment-emergent cardiovascular AE: Arteriosclerosis (%),[1]; [7],(2.8%)
same,Treatment-emergent cardiovascular AE: Cerebral haemorrhage (%),[1]; [7],(2.8%)
same,Treatment-emergent cardiovascular AE: Hot flush (%),[1]; [7],(2.8%)
same,Treatment-emergent cardiovascular AE: Hypertension (%),[1]; [7],(11.4%)
same,Treatment-emergent cardiovascular AE: Hypotension (%),[1]; [7],(2.8%)
same,Treatment-emergent cardiovascular AE: Intermittent claudication (%),[1]; [7],(2.8%)
same,Treatment-emergent cardiovascular AE: Intracranial haemorrhage (%),[1]; [7],(2.8%)
same,Treatment-emergent cardiovascular AE: Mouth haemorrhage (%),[1]; [7],(2.8%)
same,Treatment-emergent cardiovascular AE: Palpitations (%),[1]; [7],(2.8%)
same,Treatment-emergent cardiovascular AE: Syncope (%),[1]; [7],(2.8%)
same,Treatment-emergent cardiovascular AE: Transient ischaemic attack (%),[1]; [7],(2.8%)
same,Treatment-emergent cardiovascular AE: Troponin I increased (%),[1]; [7],(2.8%)
same,Treatment-emergent cardiovascular AE: Ventricular Extrasystoles (%),[1]; [7],(2.8%)
same,Treatment-emergent cardiovascular AEs: Deaths (%),[1]; [7],(2.8%)
same,Treatment-emergent cardiovascular AEs: Dose interruption and restart (%),[1]; [7],(5.7%)
same,Treatment-emergent cardiovascular AEs: Leading to drug withdrawal (%),[1]; [7],(2.8%)
same,Treatment-emergent cardiovascular AEs: Related to study drug (%),[1]; [7],(5.7%)
same,Treatment-emergent cardiovascular AEs: Serious Adverse Events (%),[1]; [7],(11.4%)
same,Treatment-emergent cardiovascular AE: Adverse Events Cluster - Cardiac and vascular events (%),[1]; [8],(5.7%)
same,Treatment-emergent cardiovascular AE: Hypertension (%),[1]; [8],(2.8%)
same,Treatment-emergent cardiovascular AE: Syncope (%),[1]; [8],(2.8%)
same,Treatment-emergent cardiovascular AEs: Dose interruption and restart (%),[1]; [8],(2.8%)
same,Treatment-emergent cardiovascular AEs: Serious Adverse Events (%),[1]; [8],(2.8%)
same,IC50,[2],nanomolar
